Assay results published in ChEMBL document CHEMBL5385942, “C3-Symmetric ligands in drug design: An overview of the challenges and opportunities ahead” (Bioorg Med Chem Lett, 2024).
pEC50: −log10 of the molar value. “And” between values parts separate entries of the source, which are not always exact repeats. Identical values can stand only once. The source made the active and inactive calls. The rule behind the calls is not given here.

Key:
Quadruplex DNA [1] = experiment: Stabilization of human G4 quadruplex telomeric22 DNA assessed as change in temperature at 1 uM by FRET assay; type: nucleic-acid assay
dsDNA = experiment: Stabilization of human duplex DNA assessed as change in temperature at 1 uM by FRET assay; type: nucleic-acid assay
Quadruplex DNA [2] = experiment: Stabilization of human G4 quadruplex telomeric22 DNA assessed as change in temperature at 2 uM by FRET assay; type: nucleic-acid assay
Quadruplex DNA [3] = experiment: Stabilization of human G4 quadruplex telomeric22 DNA assessed as change in temperature at 5 uM by FRET assay; type: nucleic-acid assay
Quadruplex DNA [4] = experiment: Stabilization of human G4 quadruplex telomeric22 DNA assessed as change in temperature at 10 uM by FRET assay; type: nucleic-acid assay
Human alphaherpesvirus 1 = experiment: Antiviral activity against HSV-1 infected in African green monkey Vero cells by plaque reduction assay; type: functional, organism-based; conditions: Human alphaherpesvirus 1, Vero
Bacillus subtilis = experiment: Antimicrobial activity against Bacillus subtilis MTCC 441 assessed as zone of inhibition by […]; type: functional
Micrococcus luteus = experiment: Antimicrobial activity against Micrococcus luteus ATCC 9341 assessed as zone of inhibition by […]; type: functional
Staphylococcus aureus = experiment: Antimicrobial activity against Staphylococcus aureus MTCC 96 assessed as zone of inhibition by […]; type: functional

| SMILES | ΔTm (Quadruplex DNA [1]) [°C] | ΔTm (dsDNA) [°C] | ΔTm (Quadruplex DNA [2]) [°C] | pEC50 (Human alphaherpesvirus 1) | other results |
| --- | --- | --- | --- | --- | --- |
| CCNCC(=O)Nc1ccc(-c2cn(Cc3cc(Cn4cc(-c5ccc(NC(=O)CNCC)cc5)nn4)cc(Cn4cc(-c5ccc(NC(=O)CNCC)cc5)nn4)c3)nn2)cc1 | 0 | 0 | 1 | – | – |
| CCCOCCNCCC(=O)Nc1ccc(-c2cn(Cc3cc(Cn4cc(-c5ccc(NC(=O)CCNCCOCCC)cc5)nn4)cc(Cn4cc(-c5ccc(NC(=O)CCNCCOCCC)cc5)nn4)c3)nn2)cc1 | 0 | 0 | 0 | – | – |
| CCCCCCNCC(=O)Nc1ccc(-c2cn(Cc3cc(Cn4cc(-c5ccc(NC(=O)CNCCCCCC)cc5)nn4)cc(Cn4cc(-c5ccc(NC(=O)CNCCCCCC)cc5)nn4)c3)nn2)cc1 | 2 | 0 | 2 | – | – |
| c1ccc2c(c1)c1cc(-c3cc(-c4ccc5c(c4)c4ccccc4n5CCCN4CCCCC4)cc(-c4ccc5c(c4)c4ccccc4n5CCCN4CCCCC4)c3)ccc1n2CCCN1CCCCC1 | 6 | – | – | – | ΔTm (Quadruplex DNA [3]): 17 °C; ΔTm (Quadruplex DNA [4]): 19.9 °C |
| CC(C)CNc1nc(NCC(C)C)nc(NCC(C)C)n1 | – | – | – | 4.53 | – |
| CNCCC(=O)Nc1ccc(-c2cn(Cc3cc(Cn4cc(-c5ccc(NC(=O)CCNC)cc5)nn4)cc(Cn4cc(-c5ccc(NC(=O)CCNC)cc5)nn4)c3)nn2)cc1 | – | 0 | – | – | – |
| c1ccc2c(c1)c1cc(-c3cc(-c4ccc5c(c4)c4ccccc4n5CCCN4CCOCC4)cc(-c4ccc5c(c4)c4ccccc4n5CCCN4CCOCC4)c3)ccc1n2CCCN1CCOCC1 | – | – | – | – | Activity (Quadruplex DNA [1]): inactive; Activity (Quadruplex DNA [3]): inactive; Activity (Quadruplex DNA [4]): inactive |
| FC(F)(F)c1ccc(CNc2nc(NCc3ccc(C(F)(F)F)cc3)nc(NCc3ccc(C(F)(F)F)cc3)n2)cc1 | – | – | – | 5.13 | – |
| CC(C)COc1nc(N)nc(OCC(C)C)n1 | – | – | – | < 4.00 | – |
| CCNCCCC(=O)Nc1ccc(-c2cn(Cc3cc(Cn4cc(-c5ccc(NC(=O)CCCNCC)cc5)nn4)cc(Cn4cc(-c5ccc(NC(=O)CCCNCC)cc5)nn4)c3)nn2)cc1 | 1 | 0 | 2 | – | – |
| Nc1nc(OC(C(F)(F)F)C(F)(F)F)nc(OC(C(F)(F)F)C(F)(F)F)n1 | – | – | – | < 4.00 | – |
| c1ccc2c(c1)[nH]c1ccc(-c3cc(-c4ccc5[nH]c6ccccc6c5c4)cc(-c4ccc5[nH]c6ccccc6c5c4)c3)cc12 | 1.1 | – | – | – | ΔTm (Quadruplex DNA [3]): 4 °C; ΔTm (Quadruplex DNA [4]): 2.6 °C |
| CC(C)Nc1nc(NC(C)C)nc(NC(C)C)n1 | – | – | – | 4.56 | – |
| CCNCCC(=O)Nc1ccc(-c2cn(Cc3cc(Cn4cc(-c5ccc(NC(=O)CCNCC)cc5)nn4)cc(Cn4cc(-c5ccc(NC(=O)CCNCC)cc5)nn4)c3)nn2)cc1 | – | 0 | – | – | – |
| CCN(CC)CCn1c2ccccc2c2cc(-c3cc(-c4ccc5c(c4)c4ccccc4n5CCN(CC)CC)cc(-c4ccc5c(c4)c4ccccc4n5CCN(CC)CC)c3)ccc21 | 2.8 | – | – | – | ΔTm (Quadruplex DNA [3]): 4.9 °C; ΔTm (Quadruplex DNA [4]): 3.3 °C |
| CCCCCNCC(=O)Nc1ccc(-c2cn(Cc3cc(Cn4cc(-c5ccc(NC(=O)CNCCCCC)cc5)nn4)cc(Cn4cc(-c5ccc(NC(=O)CNCCCCC)cc5)nn4)c3)nn2)cc1 | 0 | 0 | 0 | – | – |
| CCCCCCNCCC(=O)Nc1ccc(-c2cn(Cc3cc(Cn4cc(-c5ccc(NC(=O)CCNCCCCCC)cc5)nn4)cc(Cn4cc(-c5ccc(NC(=O)CCNCCCCCC)cc5)nn4)c3)nn2)cc1 | 4 | 0 | 11 | – | – |
| O=C(/C=C/c1cccc([N+](=O)[O-])c1)c1ccc(Oc2nc(Oc3ccc(C(=O)/C=C/c4cccc([N+](=O)[O-])c4)cc3)nc(Oc3ccc(C(=O)/C=C/c4cccc([N+](=O)[O-])c4)cc3)n2)cc1 | – | – | – | – | inhibition zone (IZ) (Bacillus subtilis): 7 mm; inhibition zone (IZ) (Micrococcus luteus): 5 mm |
| COc1ccc(CNc2nc(NCc3ccc(OC)cc3)nc(NCc3ccc(OC)cc3)n2)cc1 | – | – | – | < 4.00 | – |
| O=C(/C=C/c1ccc(Cl)cc1Cl)c1ccc(Oc2nc(Oc3ccc(C(=O)/C=C/c4ccc(Cl)cc4Cl)cc3)nc(Oc3ccc(C(=O)/C=C/c4ccc(Cl)cc4Cl)cc3)n2)cc1 | – | – | – | – | inhibition zone (IZ) (Bacillus subtilis): 7 mm and 8 mm; inhibition zone (IZ) (Micrococcus luteus): 7 mm and 10 mm; inhibition zone (IZ) (Staphylococcus aureus): 10 mm and 7 mm |
| COc1ccc(CNc2nc(NCc3ccc(OC)c(OC)c3)nc(NCc3ccc(OC)c(OC)c3)n2)cc1OC | – | – | – | 6.01 | – |
| COc1ccc(CNc2nc(NCc3ccc(OC)cc3OC)nc(NCc3ccc(OC)cc3OC)n2)c(OC)c1 | – | – | – | < 4.00 | – |

| SMILES | ΔTm (Quadruplex DNA [1]) [°C] | ΔTm (dsDNA) [°C] | ΔTm (Quadruplex DNA [2]) [°C] | pEC50 (Human alphaherpesvirus 1) | other results |
| --- | --- | --- | --- | --- | --- |
| CNCC(=O)Nc1ccc(-c2cn(Cc3cc(Cn4cc(-c5ccc(NC(=O)CNC)cc5)nn4)cc(Cn4cc(-c5ccc(NC(=O)CNC)cc5)nn4)c3)nn2)cc1 | 1 | 0 | 1 | – | – |
| CCCCCNCCCC(=O)Nc1ccc(-c2cn(Cc3cc(Cn4cc(-c5ccc(NC(=O)CCCNCCCCC)cc5)nn4)cc(Cn4cc(-c5ccc(NC(=O)CCCNCCCCC)cc5)nn4)c3)nn2)cc1 | 2 | 0 | 5 | – | – |
| CNCCCC(=O)Nc1ccc(-c2cn(Cc3cc(Cn4cc(-c5ccc(NC(=O)CCCNC)cc5)nn4)cc(Cn4cc(-c5ccc(NC(=O)CCCNC)cc5)nn4)c3)nn2)cc1 | 2 | 0 | 7 | – | – |
| CCN(CC)CCCn1c2ccccc2c2cc(-c3cc(-c4ccc5c(c4)c4ccccc4n5CCCN(CC)CC)cc(-c4ccc5c(c4)c4ccccc4n5CCCN(CC)CC)c3)ccc21 | 5.1 | – | – | – | ΔTm (Quadruplex DNA [3]): 8.4 °C; ΔTm (Quadruplex DNA [4]): 11.5 °C |
| FC(F)CNc1nc(NCC(F)F)nc(NCC(F)F)n1 | – | – | – | 4.61 | – |
| c1cc2c(cc1CNc1nc(NCc3ccc4c(c3)OCO4)nc(NCc3ccc4c(c3)OCO4)n1)OCO2 | – | – | – | 5.27 | – |
| c1ccc(CNc2nc(NCc3ccccc3)nc(NCc3ccccc3)n2)cc1 | – | – | – | 4.88 | – |
| COc1ccc(CNc2nc(NCc3ccc(OC)c(OC)c3OC)nc(NCc3ccc(OC)c(OC)c3OC)n2)c(OC)c1OC | – | – | – | 4.55 | – |
| CC(C)(C)Oc1nc(N)nc(OC(C)(C)C)n1 | – | – | – | < 4.00 | – |
| CCCOCCNCC(=O)Nc1ccc(-c2cn(Cc3cc(Cn4cc(-c5ccc(NC(=O)CNCCOCCC)cc5)nn4)cc(Cn4cc(-c5ccc(NC(=O)CNCCOCCC)cc5)nn4)c3)nn2)cc1 | 0 | 0 | 0 | – | – |
| NC(=S)N1N=C(c2ccc(Oc3nc(Oc4ccc(C5=NN(C(N)=S)C(c6ccc([N+](=O)[O-])cc6)C5)cc4)nc(Oc4ccc(C5=NN(C(N)=S)C(c6ccc([N+](=O)[O-])cc6)C5)cc4)n3)cc2)CC1c1ccc([N+](=O)[O-])cc1 (stereo unspecified) | – | – | – | – | inhibition zone (IZ) (Bacillus subtilis): 10 mm |
| CCCOCCNCCCC(=O)Nc1ccc(-c2cn(Cc3cc(Cn4cc(-c5ccc(NC(=O)CCCNCCOCCC)cc5)nn4)cc(Cn4cc(-c5ccc(NC(=O)CCCNCCOCCC)cc5)nn4)c3)nn2)cc1 | 0 | 0 | 0 | – | – |
| O=C(/C=C/c1ccc(Cl)cc1)c1ccc(Oc2nc(Oc3ccc(C(=O)/C=C/c4ccc(Cl)cc4)cc3)nc(Oc3ccc(C(=O)/C=C/c4ccc(Cl)cc4)cc3)n2)cc1 | – | – | – | – | inhibition zone (IZ) (Bacillus subtilis): 7 mm; inhibition zone (IZ) (Micrococcus luteus): 8 mm |
| c1ccc2c(c1)c1cc(-c3cc(-c4ccc5c(c4)c4ccccc4n5CCN4CCCCC4)cc(-c4ccc5c(c4)c4ccccc4n5CCN4CCCCC4)c3)ccc1n2CCN1CCCCC1 | – | – | – | – | Activity (Quadruplex DNA [1]): inactive; ΔTm (Quadruplex DNA [3]): 2.3 °C; ΔTm (Quadruplex DNA [4]): 4.9 °C |
| CCCCCCNCCCC(=O)Nc1ccc(-c2cn(Cc3cc(Cn4cc(-c5ccc(NC(=O)CCCNCCCCCC)cc5)nn4)cc(Cn4cc(-c5ccc(NC(=O)CCCNCCCCCC)cc5)nn4)c3)nn2)cc1 | 1 | 0 | 1 | – | – |
| CCCCCNCCC(=O)Nc1ccc(-c2cn(Cc3cc(Cn4cc(-c5ccc(NC(=O)CCNCCCCC)cc5)nn4)cc(Cn4cc(-c5ccc(NC(=O)CCNCCCCC)cc5)nn4)c3)nn2)cc1 | 1 | 0 | 7 | – | – |
| c1ccc2c(c1)c1cc(-c3cc(-c4ccc5c(c4)c4ccccc4n5CCN4CCOCC4)cc(-c4ccc5c(c4)c4ccccc4n5CCN4CCOCC4)c3)ccc1n2CCN1CCOCC1 | – | – | – | – | Activity (Quadruplex DNA [1]): inactive; Activity (Quadruplex DNA [3]): inactive; Activity (Quadruplex DNA [4]): inactive |
| Cc1ccc(CNc2nc(NCc3ccc(C)cc3)nc(NCc3ccc(C)cc3)n2)cc1 | – | – | – | 4.41 | – |
| c1ccc2c(c1)c1cc(-c3cc(-c4ccc5c(c4)c4ccccc4n5CCN4CCCC4)cc(-c4ccc5c(c4)c4ccccc4n5CCN4CCCC4)c3)ccc1n2CCN1CCCC1 | 1.9 | – | – | – | ΔTm (Quadruplex DNA [3]): 10 °C; ΔTm (Quadruplex DNA [4]): 13 °C |
| c1ccc2c(c1)c1cc(-c3cc(-c4ccc5c(c4)c4ccccc4n5CCCN4CCCC4)cc(-c4ccc5c(c4)c4ccccc4n5CCCN4CCCC4)c3)ccc1n2CCCN1CCCC1 | 2.6 | – | – | – | ΔTm (Quadruplex DNA [3]): 14.3 °C; ΔTm (Quadruplex DNA [4]): 17.5 °C |
| Clc1ccc(CNc2nc(NCc3ccc(Cl)cc3)nc(NCc3ccc(Cl)cc3)n2)cc1 | – | – | – | 4.96 | – |
